The results in this text go back to US7855290B2, “Pyridine derivatives and pyrimidine derivatives (3)” (Eisai R&D Management Co., Ltd., priority 2005, dated 2010).

pIC50: −log10 of the molar value.

T1 sequence (P08581 25-1390): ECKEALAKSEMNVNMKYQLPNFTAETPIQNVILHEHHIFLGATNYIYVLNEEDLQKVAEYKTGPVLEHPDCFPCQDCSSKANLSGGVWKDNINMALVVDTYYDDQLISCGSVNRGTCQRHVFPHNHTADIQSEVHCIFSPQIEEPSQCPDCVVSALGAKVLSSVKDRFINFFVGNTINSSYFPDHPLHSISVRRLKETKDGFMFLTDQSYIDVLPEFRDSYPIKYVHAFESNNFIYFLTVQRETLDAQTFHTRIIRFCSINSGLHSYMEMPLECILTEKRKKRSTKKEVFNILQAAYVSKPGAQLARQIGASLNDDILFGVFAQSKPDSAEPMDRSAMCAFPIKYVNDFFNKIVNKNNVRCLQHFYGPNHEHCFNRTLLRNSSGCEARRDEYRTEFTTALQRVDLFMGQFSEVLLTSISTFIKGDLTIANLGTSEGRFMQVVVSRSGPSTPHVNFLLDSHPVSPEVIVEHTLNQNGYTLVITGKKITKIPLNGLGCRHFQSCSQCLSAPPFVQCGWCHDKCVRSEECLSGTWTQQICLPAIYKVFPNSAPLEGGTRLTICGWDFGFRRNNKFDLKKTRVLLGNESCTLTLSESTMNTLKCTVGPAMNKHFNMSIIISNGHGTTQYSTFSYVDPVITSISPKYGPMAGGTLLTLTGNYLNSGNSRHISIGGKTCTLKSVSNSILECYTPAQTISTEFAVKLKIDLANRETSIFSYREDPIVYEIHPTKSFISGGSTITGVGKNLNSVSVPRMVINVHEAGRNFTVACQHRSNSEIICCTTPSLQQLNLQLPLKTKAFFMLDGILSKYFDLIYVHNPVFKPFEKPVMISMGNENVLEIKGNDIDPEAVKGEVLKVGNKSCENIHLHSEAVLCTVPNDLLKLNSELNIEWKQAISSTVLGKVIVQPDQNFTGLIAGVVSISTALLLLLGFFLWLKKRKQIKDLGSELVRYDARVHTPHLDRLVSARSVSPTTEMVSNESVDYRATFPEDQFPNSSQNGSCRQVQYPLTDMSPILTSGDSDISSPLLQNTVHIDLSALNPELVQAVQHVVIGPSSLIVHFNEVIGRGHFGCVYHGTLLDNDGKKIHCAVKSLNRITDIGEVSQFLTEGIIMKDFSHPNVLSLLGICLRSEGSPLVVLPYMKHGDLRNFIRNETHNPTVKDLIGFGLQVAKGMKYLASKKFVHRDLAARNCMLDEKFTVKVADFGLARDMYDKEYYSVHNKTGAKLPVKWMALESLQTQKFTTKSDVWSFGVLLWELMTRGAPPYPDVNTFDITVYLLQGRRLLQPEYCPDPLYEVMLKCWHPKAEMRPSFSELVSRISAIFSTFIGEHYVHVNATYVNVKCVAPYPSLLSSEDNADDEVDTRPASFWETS

This experiment has as its target T1, HGFR (Homo sapiens, UniProt P08581).
T1 construct: endogenous in cells; host or cells: MKN-45 human gastric cancer cells
The experiment in a line: Inhibitory activity against the HGFR autophosphorylation using ELISA (MKN-45 cells). Particulars: 1 hr with test substance. It is filed as cell-based. The essentials: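 HGFR autophosphorylation measured by sandwich ELISA: anti-phosphotyrosine PY20 capture, anti-HGFR detection, HRP secondary, TMB read at 450 nm. Lysates came from MKN-45 cells given test substance for 1 h at 37° C in 1% FBS RPMI1640. Percent activity normalised between no-compound extract and lysis buffer alone.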
For orientation: In an ELISA, binding on a coated surface is turned into a signal by an enzyme label.
In turn, `O=C(Nc1cc(Oc2ccc(NC(=O)C3(C(=O)Nc4ccc(F)cc4)CC3)c(F)c2)ccn1)N1CCC(CN2CCCC2)CC1` [Example 40, N-(4-Fluorophenyl)-N′-(2-fluoro-4-{[2-({[4-(pyrrolidin-1-ylmethyl)piperidin-1-yl]carbonyl}amino)pyridin-4-yl]oxy}phenyl)cyclopropane-1,1-dicarboxamide] gave a pIC50 of 8.10.

For `O=C(Nc1cc(Oc2ccc(NC(=O)C3(C(=O)Nc4ccc(F)cc4)CC3)c(F)c2)ccn1)N1CC(N2CCC2)C1` [Example 73, N-[4-({2-[(1,3′-Biazetidin-1′-ylcarbonyl)amino]pyridin-4-yl}oxy)-2-fluorophenyl]-N′-(4-fluorophenyl)cyclopropane-1,1-dicarboxamide], the pIC50 was 8.10. For `O=C(Nc1cc(Oc2ccc(NC(=O)C3(C(=O)Nc4ccc(F)cc4)CC3)c(F)c2)ccn1)N1CC(O)C1` [Example 72, N-{2-Fluoro-4-[(2-{[(3-hydroxyazetidin-1-yl)carbonyl]amino}pyridin-4-yl)oxy]phenyl}-N′-(4-fluorophenyl)cyclopropane-1,1-dicarboxamide], the pIC50 is 8.00.

Regarding `CN(C)CCN1CCC(N(C)C(=O)Nc2cc(Oc3ccc(NC(=O)C4(C(=O)Nc5ccc(F)cc5)CC4)c(F)c3)ccn2)CC1` [Example 25, N-(4-{[2-({[{1-[2-(Dimethylamino)ethyl]piperidin-4-yl}(methyl)amino]carbonyl}amino)pyridin-4-yl]oxy}-2-fluorophenyl)-N′-(4-fluorophenyl)cyclopropane-1,1-dicarboxamide], the pIC50 is 8.34.

Consider `O=C(Nc1cc(Oc2ccc(NC(=O)C3(C(=O)Nc4ccc(F)cc4)CC3)cc2F)ccn1)N1CCC(CN2CCC2)CC1` [Example 26, N-(4-{[2-({[4-(Azetidin-1-ylmethyl)piperidin-1-yl]carbonyl}amino)pyridin-4-yl]oxy}-3-fluorophenyl)-N′-(4-fluorophenyl)cyclopropane-1,1-dicarboxamide], for which the pIC50 is 8.08. The same measure for `CN1CC(N2CCN(C(=O)Nc3cc(Oc4ccc(NC(=O)C5(C(=O)Nc6ccc(F)cc6)CC5)cc4F)ccn3)CC2)C1` [Example 22, N-(3-Fluoro-4-{[2-({[4-(1-methylazetidin-3-yl)piperazin-1-yl]carbonyl}amino)pyridin-4-yl]oxy}phenyl)-N′-(4-fluorophenyl)cyclopropane-1,1-dicarboxamide]: 7.68; for `CN(C)[C@H]1CCN(C(=O)Nc2cc(Oc3ccc(NC(=O)C4(C(=O)Nc5ccc(F)cc5)CC4)c(F)c3)ccn2)C1` [Example 46, N-(4-{[2-({[(3S)-3-(Dimethylamino)pyrrolidin-1-yl]carbonyl}amino)pyridin-4-yl]oxy}-2-fluorophenyl)-N′-(4-fluorophenyl)cyclopropane-1,1-dicarboxamide]: 7.72; for `CN(C)C1CN(C2CCN(C(=O)Nc3cc(Oc4ccc(NC(=O)C5(C(=O)Nc6ccc(F)cc6)CC5)cc4)ccn3)CC2)C1` [Example 38, N-[4-({2-[({4-[3-(Dimethylamino)azetidin-1-yl]piperidin-1-yl}carbonyl)amino]pyridin-4-yl}oxy)phenyl]-N′-(4-fluorophenyl)cyclopropane-1,1-dicarboxamide]: 7.74. The figure for `O=C(Nc1cc(Oc2cc(F)c(NC(=O)C3(C(=O)Nc4ccc(F)cc4)CC3)cc2F)ncn1)N1CC(CO)C1` [Example 99, N-(2,5-Difluoro-4-{[4-({[3-(hydroxymethyl)azetidin-1-yl]carbonyl}amino)pyrimidin-6-yl]oxy}phenyl)-N′-(4-fluorophenyl)cyclopropane-1,1-dicarboxamide] is 7.85; for `O=C(Nc1cc(Oc2ccc(NC(=O)C3(C(=O)Nc4ccc(F)cc4)CC3)c(F)c2)ccn1)N1CCC1` [Example 61, N-[4-({2-[(Azetidin-1-ylcarbonyl)amino]pyridin-4-yl]oxy}-2-fluorophenyl]-N′-(4-fluorophenyl)cyclopropane-1,1-dicarboxamide] it is 8.10.

As to `CN1CCC(N(C)C(=O)Nc2cc(Oc3ccc(NC(=O)C4(C(=O)Nc5ccc(F)cc5F)CC4)c(F)c3)ccn2)CC1` [Example 56, N-(2,4-Difluorophenyl)-N′-(2-fluoro-4-{[2-({[methyl(1-methylpiperidin-4-yl)amino]carbonyl}amino)pyridin-4-yl]oxy}phenyl)cyclopropane-1,1-dicarboxamide], the pIC50 is 7.39. The same measure for `CN1CCC(N2CCN(C(=O)Nc3cc(Oc4ccc(NC(=O)C5(C(=O)Nc6ccc(F)cc6)CC5)c(F)c4)ccn3)CC2)CC1` [Example 16, N-(2-Fluoro-4-{[2-({[4-(1-methylpiperidin-4-yl)piperazin-1-yl]carbonyl}amino)pyridin-4-yl]oxy}phenyl)-N′-(4-fluorophenyl)cyclopropane-1,1-dicarboxamide]: 7.74; for `CN(C)CCN1CCN(C(=O)Nc2cc(Oc3ccc(NC(=O)C4(C(=O)Nc5ccc(F)cc5)CC4)cc3F)ccn2)CC1` [Example 7, N-[4-({2-[({4-[2-(Dimethylamino)ethyl]piperazin-1-yl}carbonyl)amino]pyridin-4-yl}oxy)-3-fluorophenyl]-N′-(4-fluorophenyl)cyclopropane-1,1-dicarboxamide]: 7.46; for `O=C(Nc1cc(Oc2ccc(NC(=O)C3(C(=O)Nc4ccc(F)cc4)CC3)cc2)ccn1)N1CCC(CN2CCCC2)CC1` [Example 29, N-(4-Fluorophenyl)-N′-(4-{[2-({[4-(pyrrolidin-1-ylmethyl)piperidin-1-yl]-carbonyl}amino)pyridin-4-yl]oxy}phenyl)cyclopropane-1,1-dicarboxamide]: 7.52. The same measure for `CN1CCN(C2CCN(C(=O)Nc3cc(Oc4cc(F)c(NC(=O)C5(C(=O)Nc6ccc(F)cc6)CC5)cc4F)ncn3)CC2)CC1` [Example 101, N-(2,5-Difluoro-4-{[4-({[4-(4-methylpiperazin-1-yl)piperidin-1-yl]carbonyl}amino)pyrimidin-6-yl]oxy}phenyl)-N′-(4-fluorophenyl)cyclopropane-1,1-dicarboxamide]: 7.82; for `O=C(Nc1cc(Oc2ccc(NC(=O)C3(C(=O)Nc4ccc(F)cc4)CC3)cc2F)ncn1)N1CCOCC1` [Example 35, N-[3-Fluoro-4-({6-{(morpholin-4-ylcarbonyl)amino}pyrimidin-4-yl}oxy)phenyl]-N′-(4-fluorophenyl)cyclopropane-1,1-dicarboxamide]: 6.92. In turn, `O=C(Nc1cc(Oc2ccc(NC(=O)C3(C(=O)Nc4ccc(F)cc4)CC3)c(F)c2)ccn1)N1CCCC1` [Example 62, N-(4-Fluorophenyl)-N′-[2-fluoro-4-({2-[(pyrrolidin-1-ylcarbonyl)amino]pyridin-4-yl}oxy)phenyl]cyclopropane-1,1-dicarboxamide] gave a pIC50 of 7.96. `CN1CCN(C2CCN(C(=O)Nc3cc(Oc4ccc(NC(=O)C5(C(=O)Nc6ccccc6)CC5)c(F)c4)ccn3)CC2)CC1` [Example 54, N-(2-Fluoro-4-{[2-({[4-(4-methylpiperazin-1-yl)piperidin-1-yl]carbonyl}amino)pyridin-4-yl]oxy}phenyl)-N′-phenylcyclopropane-1,1-dicarboxamide] had a pIC50 of 7.62. `COC1CN(C(=O)Nc2cc(Oc3ccc(NC(=O)C4(C(=O)Nc5ccc(F)cc5)CC4)cc3F)ccn2)C1` [Example 79] showed a pIC50 of 7.80.

The term pIC50 denotes −log10 of the IC50, conventionally taken in molar units. High values mean a small IC50, low ones a large IC50.
